Reference: ChEMBL document CHEMBL3046635, “Synthesis and Herbicidal Activity of New Pyrazole-4-carboxamide Derivatives” (J Pestic Sci, 2004)
The source made the active and inactive calls.

What was measured:
Oryza sativa = assay: Phytotoxicity against Oryza sativa cv. Koshihikari (rice) at 500 g a.i/ha measured after 14 days; format: organism-based; conditions: in vivo, 336 h
Eleocharis acicularis [1] = assay: Pre-emergence herbicidal activity against Eleocharis acicularis at 500 g a.i/ha measured after 14 days; format: functional, organism-based
Pontederia vaginalis [2] = assay: Pre-emergence herbicidal activity against Monochoria vaginalis at 500 g a.i/ha measured after 14 days; format: functional, organism-based
[3] = test system: Schoenoplectiella juncoides; assay: Pre-emergence herbicidal activity against Schoenoplectiella juncoides at 500 g a.i/ha measured after 14 days; format: functional, organism-based
Ammannia multiflora [4] = assay: Pre-emergence herbicidal activity against Ammannia multiflora at 500 g a.i/ha measured after 14 days; format: functional, organism-based
Elatine triandra [5] = assay: Pre-emergence herbicidal activity against Elatine triandra at 500 g a.i/ha measured after 14 days; format: functional, organism-based
Rotala indica [6] = assay: Pre-emergence herbicidal activity against Rotala indica at 500 g a.i/ha measured after 14 days; format: functional, organism-based
Lindernia procumbens [7] = assay: Pre-emergence herbicidal activity against Lindernia procumbens at 500 g a.i/ha measured after 14 days; format: functional, organism-based
Echinochloa oryzicola [8] = assay: Pre-emergence herbicidal activity against Echinochloa oryzicola at 500 g a.i/ha measured after 14 days; format: functional, organism-based
Cyperus difformis [9] = assay: Pre-emergence herbicidal activity against Cyperus difformis at 500 g a.i/ha measured after 14 days; format: functional, organism-based
Eleocharis acicularis [10] = assay: Post-emergence herbicidal activity against Eleocharis acicularis assessed as bleaching of stem/leaf parts; format: functional, organism-based; also: test concentration or dose not given here
Eleocharis acicularis [11] = assay: Pre-emergence herbicidal activity against Eleocharis acicularis assessed as bleaching of stem/leaf parts; format: functional, organism-based
Ammannia multiflora [12] = assay: Pre-emergence herbicidal activity against Ammannia multiflora assessed as bleaching of stem/leaf parts; format: functional, organism-based
Rotala indica [13] = assay: Pre-emergence herbicidal activity against Rotala indica assessed as bleaching of stem/leaf parts; format: functional, organism-based
Elatine triandra [14] = assay: Pre-emergence herbicidal activity against Elatine triandra assessed as bleaching of stem/leaf parts; format: functional, organism-based
Lindernia procumbens [15] = assay: Pre-emergence herbicidal activity against Lindernia procumbens assessed as bleaching of stem/leaf parts; format: functional, organism-based
[16] = test system: Schoenoplectiella juncoides; assay: Pre-emergence herbicidal activity against Schoenoplectiella juncoides assessed as bleaching of stem/leaf parts; format: functional, organism-based
Pontederia vaginalis [17] = assay: Pre-emergence herbicidal activity against Monochoria vaginalis assessed as bleaching of stem/leaf parts; format: functional, organism-based
Cyperus difformis [18] = assay: Pre-emergence herbicidal activity against Cyperus difformis assessed as bleaching of stem/leaf parts; format: functional, organism-based
Echinochloa oryzicola [19] = assay: Pre-emergence herbicidal activity against Echinochloa oryzicola assessed as bleaching of stem/leaf parts; format: functional, organism-based
Ammannia multiflora [20] = assay: Post-emergence herbicidal activity against Ammannia multiflora assessed as bleaching of stem/leaf parts; format: functional, organism-based; also: test concentration or dose not given here
Elatine triandra [21] = assay: Post-emergence herbicidal activity against Elatine triandra assessed as bleaching of stem/leaf parts; format: functional, organism-based; also: test concentration or dose not given here
Rotala indica [22] = assay: Post-emergence herbicidal activity against Rotala indica assessed as bleaching of stem/leaf parts; format: functional, organism-based; also: test concentration or dose not given here
[23] = test system: Schoenoplectiella juncoides; assay: Post-emergence herbicidal activity against Schoenoplectiella juncoides assessed as bleaching of stem/leaf parts; format: functional, organism-based; also: test concentration or dose not given here
Lindernia procumbens [24] = assay: Post-emergence herbicidal activity against Lindernia procumbens assessed as bleaching of stem/leaf parts; format: functional, organism-based; also: test concentration or dose not given here
Pontederia vaginalis [25] = assay: Post-emergence herbicidal activity against Monochoria vaginalis assessed as bleaching of stem/leaf parts; format: functional, organism-based; also: test concentration or dose not given here
Cyperus difformis [26] = assay: Post-emergence herbicidal activity against Cyperus difformis assessed as bleaching of stem/leaf parts; format: functional, organism-based; also: test concentration or dose not given here
Echinochloa oryzicola [27] = assay: Post-emergence herbicidal activity against Echinochloa oryzicola assessed as bleaching of stem/leaf parts; format: functional, organism-based; also: test concentration or dose not given here

With `CCONC(=O)c1cn(C(C)(C)C)nc1OCc1cccc(C(F)(F)F)c1` the Activity (Oryza sativa) was “Non-toxic”, the Activity (Eleocharis acicularis [1]) was “inactive” and the Activity (Pontederia vaginalis [2]) was “inactive”. The Activity [3] was “inactive”, the Activity (Ammannia multiflora [4]) was “inactive” and the Activity (Elatine triandra [5]) was “inactive”. The Activity (Rotala indica [6]) was “inactive”, the Activity (Lindernia procumbens [7]) was “inactive” and the Activity (Echinochloa oryzicola [8]) was “inactive”. The Activity (Cyperus difformis [9]) was “inactive”, the Activity (Eleocharis acicularis [10]) was “Active” and the Activity (Eleocharis acicularis [11]) was “Active”. The Activity (Ammannia multiflora [12]) was “Active”, the Activity (Rotala indica [13]) was “Active” and the Activity (Elatine triandra [14]) was “Active”. The Activity (Lindernia procumbens [15]) was “Active”, the Activity [16] was “Active” and the Activity (Pontederia vaginalis [17]) was “Active”. For the same compound, the Activity (Cyperus difformis [18]) was “Active”, the Activity (Echinochloa oryzicola [19]) was “Active” and the Activity (Ammannia multiflora [20]) was “Active”. The Activity (Elatine triandra [21]) was “Active”, the Activity (Rotala indica [22]) was “Active” and the Activity [23] was “Active”. The Activity (Lindernia procumbens [24]) was “Active”, the Activity (Pontederia vaginalis [25]) was “Active” and the Activity (Cyperus difformis [26]) was “Active”. For the same compound, the Activity (Echinochloa oryzicola [27]) was “Active”.

For `Cn1cc(C(=O)NCc2cccc(Cl)c2)c(OCc2cccc(C(F)(F)F)c2)n1`, the Activity (Oryza sativa) was “Non-toxic”, the Activity (Eleocharis acicularis [1]) was “inactive” and the Activity (Pontederia vaginalis [2]) was “inactive”. For the same compound, the Activity [3] was “inactive”, the Activity (Ammannia multiflora [4]) was “inactive” and the Activity (Elatine triandra [5]) was “inactive”. The Activity (Rotala indica [6]) was “inactive”, the Activity (Lindernia procumbens [7]) was “inactive” and the Activity (Echinochloa oryzicola [8]) was “inactive”. For the same compound, the Activity (Cyperus difformis [9]) was “inactive”, the Activity (Eleocharis acicularis [10]) was “Active” and the Activity (Eleocharis acicularis [11]) was “Active”. For the same compound, the Activity (Ammannia multiflora [12]) was “Active”, the Activity (Rotala indica [13]) was “Active” and the Activity (Elatine triandra [14]) was “Active”. For the same compound, the Activity (Lindernia procumbens [15]) was “Active”, the Activity [16] was “Active” and the Activity (Pontederia vaginalis [17]) was “Active”. The Activity (Cyperus difformis [18]) was “Active”, the Activity (Echinochloa oryzicola [19]) was “Active” and the Activity (Ammannia multiflora [20]) was “Active”. For the same compound, the Activity (Elatine triandra [21]) was “Active”, the Activity (Rotala indica [22]) was “Active” and the Activity [23] was “Active”. For the same compound, the Activity (Lindernia procumbens [24]) was “Active”, the Activity (Pontederia vaginalis [25]) was “Active” and the Activity (Cyperus difformis [26]) was “Active”. The Activity (Echinochloa oryzicola [27]) was “Active”.

With `CNC(=O)c1cn(C)nc1OCc1cccc(C(F)(F)F)c1` the Activity (Oryza sativa) was “Non-toxic”, the Activity (Eleocharis acicularis [1]) was “inactive” and the Activity (Pontederia vaginalis [2]) was “inactive”. The Activity [3] was “inactive”, the Activity (Ammannia multiflora [4]) was “inactive” and the Activity (Elatine triandra [5]) was “inactive”. The Activity (Rotala indica [6]) was “inactive”, the Activity (Lindernia procumbens [7]) was “inactive” and the Activity (Echinochloa oryzicola [8]) was “inactive”. For the same compound, the Activity (Cyperus difformis [9]) was “inactive”, the Activity (Eleocharis acicularis [10]) was “Active” and the Activity (Eleocharis acicularis [11]) was “Active”. For the same compound, the Activity (Ammannia multiflora [12]) was “Active”, the Activity (Rotala indica [13]) was “Active” and the Activity (Elatine triandra [14]) was “Active”. The Activity (Lindernia procumbens [15]) was “Active”, the Activity [16] was “Active” and the Activity (Pontederia vaginalis [17]) was “Active”. The Activity (Cyperus difformis [18]) was “Active”, the Activity (Echinochloa oryzicola [19]) was “Active” and the Activity (Ammannia multiflora [20]) was “Active”. The Activity (Elatine triandra [21]) was “Active”, the Activity (Rotala indica [22]) was “Active” and the Activity [23] was “Active”. For the same compound, the Activity (Lindernia procumbens [24]) was “Active”, the Activity (Pontederia vaginalis [25]) was “Active” and the Activity (Cyperus difformis [26]) was “Active”. The Activity (Echinochloa oryzicola [27]) was “Active”.

With `Cn1cc(C(=O)N2CCCC2)c(OCc2cccc(C(F)(F)F)c2)n1` the Activity (Oryza sativa) was “Non-toxic”, the Activity (Eleocharis acicularis [1]) was “inactive” and the Activity (Pontederia vaginalis [2]) was “inactive”. For the same compound, the Activity [3] was “inactive”, the Activity (Ammannia multiflora [4]) was “inactive” and the Activity (Elatine triandra [5]) was “inactive”. For the same compound, the Activity (Rotala indica [6]) was “inactive”, the Activity (Lindernia procumbens [7]) was “inactive” and the Activity (Echinochloa oryzicola [8]) was “inactive”. For the same compound, the Activity (Cyperus difformis [9]) was “inactive”, the Activity (Eleocharis acicularis [10]) was “Active” and the Activity (Eleocharis acicularis [11]) was “Active”. The Activity (Ammannia multiflora [12]) was “Active”, the Activity (Rotala indica [13]) was “Active” and the Activity (Elatine triandra [14]) was “Active”. For the same compound, the Activity (Lindernia procumbens [15]) was “Active”, the Activity [16] was “Active” and the Activity (Pontederia vaginalis [17]) was “Active”. For the same compound, the Activity (Cyperus difformis [18]) was “Active”, the Activity (Echinochloa oryzicola [19]) was “Active” and the Activity (Ammannia multiflora [20]) was “Active”. The Activity (Elatine triandra [21]) was “Active”, the Activity (Rotala indica [22]) was “Active” and the Activity [23] was “Active”. For the same compound, the Activity (Lindernia procumbens [24]) was “Active”, the Activity (Pontederia vaginalis [25]) was “Active” and the Activity (Cyperus difformis [26]) was “Active”. For the same compound, the Activity (Echinochloa oryzicola [27]) was “Active”.
